Entries after “also recorded” stand apart in the source; their conditions may differ. Where two headings read alike, the source gives them in different places.
Columns and labels:
[1] = in water; cited from earlier work
[2] = Analysis of optical characteristics (absorption, fluorescence emission, quantum yield) in solvents; format: physicochemical; conditions: for Fluorescence Emission Intensity / Peak emission wavelength λmax em(nm) / Relative fluorescence Emission Intensitynorm: H2O at 2 μM; for Peak emission wavelength λmax em(nm): excited at the longest absorption maxima; for Relative fluorescence Emission Intensitynorm: normalized fluorescence intensity; for Fluorescence quantum yield (Φ): Rhodamine 6G as a standard (Φ = 0.86 in water)
Outline: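 Optical properties of indolizinoquinoline compounds were examined in solvents. A 10 mM DMSO stock was diluted into the solvent, and fluorescence emission spectra were recorded at 20° C. on a JASCO FP-6500 spectrofluorometer. Absorption spectra were taken at room temperature on a Perkin Elmer Lamda 20 UV/VIS spectrometer. Fluorescence quantum yield (Φ) was determined.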

[3] = target: T1, PDEδ (Homo sapiens, UniProt O43924); test: Confirmation of target protein using FRET; format: binding; conditions: irradiated with 280-nm light
T1 construct: made in house; host or cells: E. coli
T1 sequence (O43924 whole entry): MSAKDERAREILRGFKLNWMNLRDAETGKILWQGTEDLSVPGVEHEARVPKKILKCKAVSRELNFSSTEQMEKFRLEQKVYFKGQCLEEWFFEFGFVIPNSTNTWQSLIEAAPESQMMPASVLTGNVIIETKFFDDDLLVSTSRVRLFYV
Description: Therefore, to confirm whether the fluorescent material is able to selectively bind to a specific protein in a cell, fluorescence of the recombinant PDE and/or indolizino[3,2-c]quinoline compound, which is overexpressed in E. coli cells, followed by isolation and purification, was measured by being irradiated with 280-nm light.

[4] = system: HeLa cells; test: Cell permeability: fluorescence imaging and live cell confocal imaging; format: cell-based; conditions: HeLa cells
Description: HeLa cells were seeded in a 96-well plate and incubated for 24 hours. The cells were treated with the indolizino[3,2-c]quinoline compounds, and incubated at 37° C. under a 5% CO2 condition for 30 minutes. After removal of the medium, the cells were washed with 1×DPBS. The washed cells were fixed with 4% formaldehyde at room temperature for 10 minutes, and washed with 1×DPBS. A cell image was screened using an Operetta HTS imaging system (PerkinElmer).
After HeLa cells were seeded to account for 70 to 80% of the area of a confocal dish (SPL life science) and overnight cultured, the indolizino[3,2-c]quinoline compounds (10 μM) prepared by mixing fresh DMEM after removal of the existing DMEM medium were dispensed, and the cells were incubated for 30 minutes to 1 hour at 37° C. Afterward, if needed, LysoTracker (50 nM) was mixed with DMEM to remove the existing medium and then dispensed to the cells, and the cells were incubated for 30 minutes at 37° C. After incubation, without washing, the cells were examined by a confocal laser microscope (Leica TCS SP8 SMD, Leica, Mannheim, Germany). However, when co-stained with a LysoTracker, the cells were washed with DPBS twice before the microscopy. […]

[5] = system: cells; test: Co-staining / co-localization with DAPI, MitoTracker or LysoTracker; format: cell-based
[6] = system: cells; test: Comparison of fluorescence stability with conventionally developed dyes; format: cell-based
[7] = target: T1, PDEδ; test: Titration using fluorescence polarization; format: binding; conditions: 0.5 μM compound, PDEδ protein from 0 to 32 μM
Description: To confirm whether the indolizino[3,2-c]quinoline compound can bind to a specific intracellular protein, in the presence of 0.5 μM of the indolizino[3,2-c]quinoline compound, titration was performed by increasing the concentration of the PDEδ protein from 0 to 32 μM to measure a polarization degree.

[8] = target: T1, PDEδ; test: Titration using fluorescence polarization; format: binding; conditions: Table 9
[9] = system: DNA oligomers (48 bp) tetO sequences; test: Binding to DNA by fluorescence spectrophotometer; conditions: hybridized tetO DNA oligomers added, 1 minute incubation
Description: Using a fluorescence spectrophotometer, it was confirmed whether the indolizino[3,2-c]quinoline compound of the present invention binds to DNA. First, DNA oligomers (48 bp) used in the experiment are tetO sequences, and the base sequences thereof are as follows.
The same molarities of oligomers were mixed while being heated at 95° C. for 5 minutes and cooled to room temperature for 2 hours to hybridize, the fluorescence of each of the indolizino[3,2-c]quinoline compounds of the present invention was measured, a corresponding equivalent of DNA oligomer was added to a cuvette, and then incubated while blocking light for 1 minute to measure fluorescence again.

Structure (SMILES)	quantum yield (Φ) ([2]; DW, standard Rhodamine 6G)	quantum yield (Φ) ([2]; EtOH, standard Coumarin 153)	Fluorescence Emission Intensity [2]	Peak emission wavelength λmax em(nm) [2]	Relative fluorescence Emission Intensitynorm [2]	Kd [7]	kmax em(nm) [8]	λabs(nm) [8]	further results
O=c1cc(C(F)(F)F)c2cc3c4c(c2o1)CCCN4CCC3 [Coumarin 153]	–	–	–	–	–	–	–	–	quantum yield of the standard (Φ) [1]: 0.12
O=[N+]([O-])c1ccc(-c2nc3ccccc3c3cc4ccccn4c23)cc1 [IQ 2, 6-(4-nitrophenyl)indolizino[3,2-c]quinoline]	–	–	–	–	–	–	–	–	fluorescence (intensity, in words) [2]: did not induce fluorescence; fluorescence change / binding to PDEδ by FRET [3]: low fluorescence intensity
Cc1cccn2c1cc1c3ccccc3nc(-c3ccc([N+](=O)[O-])cc3)c12 [IQ 13, 11-methyl-6-(4-nitrophenyl)indolizino[3,2-c]quinoline]	–	–	–	–	–	–	–	–	fluorescence (intensity, in words) [2]: did not induce fluorescence; fluorescence change / binding to PDEδ by FRET [3]: no change in fluorescence
CN(C)c1ccc(-c2nc3ccccc3c3cc4ccccn4c23)cc1 [IQ 36, 4-(indolizino[3,2-c]quinolin-6-yl)-N,N-dimethylaniline]	–	–	–	–	–	–	–	–	intracellular molecule recognized [4]: recognized intracellular RNA; intracellular organelles in which fluorescence is detected [4]: intensively distributed in cytoplasmic and nucleolus areas; staining pattern compared with conventional dyes [5]: an aspect similar to RNA select for staining RNA; also recorded: stains RNA in a pattern similar to the now currently available Sytoselect; staining pattern compared with conventional dyes ([5]; listed as Formula 12): works as a complementary stain with respect to DAPI; fluorescence stability compared with commercially available dyes [6]: superior stability, compared to Sytoselect
Brc1ccc(-c2nc3ccccc3c3cc4ccccn4c23)cc1 [compound 1]	0.015	0.636	32.7	522 nm	0.14	284 nM	530 nm	430 nm	Maximum absorption wavelength λmax abs(nm) [2]: 400 nm

Continued, in another order:

quantum yield (Φ) ([2]; DW, standard Rhodamine 6G)	quantum yield (Φ) ([2]; EtOH, standard Coumarin 153)	Fluorescence Emission Intensity [2]	Peak emission wavelength λmax em(nm) [2]	Relative fluorescence Emission Intensitynorm [2]	Kd [7]	kmax em(nm) [8]	λabs(nm) [8]	Structure (SMILES)	further results
0.068	0.839	59.7	519 nm	0.26	491 nM	526 nm	440 nm	Cc1ccc(-c2nc3ccccc3c3cc4ccccn4c23)cc1 [compound 3]	change in fluorescence intensity on addition of DNA oligomer [9]: Decrease in fluorescence intensity
0.039	0.779	55.0	519 nm	0.24	505 nM	515 nm	430 nm	c1ccc(-c2nc3ccccc3c3cc4ccccn4c23)cc1 [compound 4]	change in fluorescence intensity on addition of DNA oligomer [9]: Decrease in fluorescence intensity
–	–	231.3	514.5 nm	0.99	729 nM	515 nm	430 nm	COc1ccc(-c2nc3ccccc3c3cc4ccccn4c23)cc1 [compound 6]	Absorption coefficient (cm^−1M^−1) [2]: 6547 cm^−1M^−1; Absorption wavelength λex(nm) [2]: 430 nm; Emission wavelength λem(nm) [2]: 515 nm; Maximum absorption wavelength λmax abs(nm) [2]: 430 nm; λem (nm) ([2]; DMF): 469 nm; λem (nm) ([2]; DMSO): 512 nm; λem (nm) ([2]; EtOH): 465 nm; λem (nm) ([2]; EtOH:CHCl3 = 1:5): 466 nm; λem (nm) ([2]; H2O): 511 nm; λem (nm) ([2]; MC): 467 nm; Fluorescence quantum yield (Φ) [2]: 0.121; shift of maximum emission wavelength on addition of DNA oligomer [9]: wavelength to longer wavelength
0.102	0.652	171.3	513 nm	0.74	1280 nM	515 nm	430 nm	COc1ccc(-c2nc3ccccc3c3cc4ccccn4c23)cc1OC [compound 8]	shift of maximum emission wavelength on addition of DNA oligomer [9]: wavelength to longer wavelength
–	–	232.9	514 nm	1.00	1540 nM	515 nm	430 nm	c1ccc2c(-c3nc4ccccc4c4cc5ccccn5c34)cccc2c1 [compound 9]	Absorption coefficient (cm^−1M^−1) [2]: 11656 cm^−1M^−1; Absorption wavelength λex(nm) [2]: 405 nm; Emission wavelength λem(nm) [2]: 515 nm; λem (nm) ([2]; DMF): 478 nm; λem (nm) ([2]; DMSO): 514 nm; λem (nm) ([2]; EtOH): 465.5 nm; λem (nm) ([2]; EtOH:CHCl3 = 1:5): 467.5 nm; λem (nm) ([2]; H2O): 516 nm; λem (nm) ([2]; MC): 469 nm; Fluorescence quantum yield (Φ) [2]: 0.053
0.015	0.350	39.6	532 nm	0.17	643 nM	530 nm	430 nm	c1ccc2cc(-c3nc4ccccc4c4cc5ccccn5c34)ccc2c1 [compound 10]	change in fluorescence intensity on addition of DNA oligomer [9]: Increase in fluorescence intensity

Source: patent US10787448B2, “Indolizino [3,2-C] quinoline-based fluorescent probe” (SEOUL NATIONAL UNIVERSITY R & DB FOUNDATION, priority 2015, dated 2020)
